Usually IC50 stands for the point on the concentration scale where inhibition reaches its midpoint.

A short description of this test: Inhibition of CSF1R in mouse MNFS-60 cells assessed as reduction in CSF-induced cell viability after 48 hrs by Ez-cytox reagent based assay.
With `CCN1CCN(Cc2ccc(C(=O)Nc3ccc(C)c(NC(=O)c4cc[nH]n4)c3)cc2C(F)(F)F)CC1`, the IC50 worked out at 4720 nM.
Regarding `CCN1CCN(Cc2ccc(C(=O)Nc3ccc(C)c(NC(=O)c4cnc5ccccn45)c3)cc2C(F)(F)F)CC1`, the half-inhibitory concentration (IC50) worked out at 149 nM.
On to `CCN1CCN(Cc2ccc(NC(=O)c3ccc(C)c(NC(=O)c4cnc5cccnn45)c3)cc2C(F)(F)F)CC1`, for which the IC50 is 122 nM.
In the case of `FC(F)(F)c1ccc(CNc2ccc(Cc3c[nH]c4ncc(Cl)cc34)cn2)cn1` it was 14 nM.
For `Cc1cn(-c2cc(NC(=O)c3ccc(C)c(NC(=O)c4cnc5ccccn45)c3)cc(C(F)(F)F)c2)cn1`, the IC50 was found to be 486 nM.
For `Cc1cn(-c2cc(NC(=O)c3ccc(C)c(NC(=O)c4cnc5cccnn45)c3)cc(C(F)(F)F)c2)cn1`, the IC50 turned out to be 1820 nM.
Turning to `Cc1ccc(NC(=O)c2ccc(C(F)(F)F)nc2)cc1NC(=O)c1cnc2cccnn12`, the IC50 is above 10000 nM.
On to `CCN1CCN(Cc2ccc(C(=O)Nc3ccc(C)c(NCc4cnc5ccc(OC)nn45)c3)cc2C(F)(F)F)CC1`, for which the IC50 stood at 406 nM.
As to `Cc1ccc(NC(=O)c2ccc(C(F)(F)F)nc2)cc1NC(=O)c1cnn2ccccc12`, the IC50 was 27 nM.
In the case of `CCN1CCN(Cc2ccc(C(=O)Nc3ccc(C)c(NC(=O)c4cnn5ccccc45)c3)cc2C(F)(F)F)CC1`, the IC50 stood at 91 nM.
Consider `Cc1ccc(NC(=O)c2ccc(C(F)(F)F)nc2)cc1NC(=O)c1cnc2ccccn12`, for which the IC50 is 25 nM.
In the case of `CCN1CCN(Cc2ccc(C(=O)Nc3ccc(C)c(NC(=O)c4cnnc5ccccc45)c3)cc2C(F)(F)F)CC1`, the IC50 was 1600 nM.
Take `CCN1CCN(Cc2ccc(C(=O)Nc3ccc(C)c(NC(=O)c4cnc5ncccn45)c3)cc2C(F)(F)F)CC1`: the IC50 is 4170 nM.
Under `CCN1CCN(Cc2ccc(C(=O)Nc3ccc(C)c(NC(=O)c4ccn(C)n4)c3)cc2C(F)(F)F)CC1` stands 5150 nM.
As to `Cc1ccc(NCc2ccc(C(F)(F)F)nc2)cc1NC(=O)c1cnn2ccccc12`, the IC50 was determined as 5770 nM.
`CCN1CCN(Cc2ccc(C(=O)Nc3ccc(C)c(NC(=O)c4cnc5cccnn45)c3)cc2C(F)(F)F)CC1`: the IC50 worked out at 178 nM.
In the case of `CCN1CCN(Cc2ccc(C(=O)Nc3ccc(C)c(NC(=O)c4c[nH]cn4)c3)cc2C(F)(F)F)CC1`, the IC50 was 5430 nM.
On to `CNC(=O)c1cc(Oc2ccc3nc(N[C@H]4CCCC[C@H]4O)sc3c2)ccn1`, for which the IC50 stood at 245 nM.
Turning to `CCN1CCN(Cc2ccc(C(=O)Nc3ccc(C)c(NCc4cnc5cccnn45)c3)cc2C(F)(F)F)CC1`, the IC50 was determined as 660 nM.
For `Cc1ccc(NCc2ccc(C(F)(F)F)nc2)cc1NC(=O)c1cnc2cccnn12`, the IC50 was above 10000 nM.
For the molecule `CCN1CCN(Cc2ccc(C(=O)Nc3ccc(C)c(NC(=O)c4n[nH]c5ncccc45)c3)cc2C(F)(F)F)CC1`, the IC50 was found to be 254 nM.
Under `Cc1ccc(NCc2ccc(C(F)(F)F)nc2)cc1NC(=O)c1cnc2ccccn12` stands 3150 nM.
In the case of `CCN1CCN(Cc2ccc(C(=O)Nc3ccc(C)c(NC(=O)c4ncc[nH]4)c3)cc2C(F)(F)F)CC1`, the IC50 came to 5780 nM.
Under `CCN1CCN(Cc2ccc(C(=O)Nc3ccc(C)c(NC(=O)c4n[nH]c5ccccc45)c3)cc2C(F)(F)F)CC1` stands 1580 nM.
For the molecule `Cc1cn(-c2cc(NC(=O)c3ccc(C)c(Nc4nccc(-c5cccnc5)n4)c3)cc(C(F)(F)F)c2)cn1` [AMN 107], the IC50 was determined as 534 nM.

Values taken from BindingDB's records for doi:10.1016/j.ejmech.2021.113298 (Chung-Ang University, 2021).
